Entries after “also recorded” stand apart in the source; their conditions may differ.
Assays:
[1] = tested on: microorganisms (e.g., bacteria, yeasts, fungi); assay: Targeting peptide binding to target microorganisms (Table 3); details: preferably 1x PBS; for Target(s) (microorganisms bound by the targeting peptide): peptide binding in aqueous buffers varied by peptide solubility
MRSA = assay: Kill or inhibit growth/proliferation; morphology, biofilm and growth disruption (Tables 5, 6); assay type: cell-based, Methicillin-resistant Staphylococcus aureus; parameters: key: A: Peptide aggregates; B: Less hyphal formation; Clumps; Diffuse clumps and small polyps; F: Diffuse growth; H: Thin; I: Growth inhibition; Microcolony formation; Rippled; Small polyps; Thick; W: Halo formation on top, microlonies on bottom; also: test concentration or dose not given here
C. albicans = assay: as above; assay type: cell-based, Candida albicans; parameters: key: A: Peptide aggregates; B: Less hyphal formation; Clumps; Diffuse clumps and small polyps; F: Diffuse growth; H: Thin; I: Growth inhibition; Microcolony formation; Rippled; Small polyps; Thick; W: Halo formation on top, microlonies on bottom
microorganisms = assay: Peptides having multiple activities (targeting/binding, antimicrobial, growth or phenotype altering)
Description: In certain embodiments, peptides described herein can have multiple activities. Thus for example, a peptide can have both binding/targeting activity and antimicrobial activity. Such peptides can be used, e.g., in a chimeric construct, for any or all of these properties. Thus, for example, a peptide designated “B” in Table 8 can be used as a targeting peptide. If it is also designated G or M it can also be used for antimicrobial activity.

S. pneumoniae = assay: Kill or inhibit growth/proliferation; morphology, biofilm and growth disruption (Tables 5, 6); assay type: cell-based, Streptococcus pneumoniae; parameters: key: A: Peptide aggregates; B: Less hyphal formation; Clumps; Diffuse clumps and small polyps; F: Diffuse growth; H: Thin; I: Growth inhibition; Microcolony formation; Rippled; Small polyps; Thick; W: Halo formation on top, microlonies on bottom; also: test concentration or dose not given here
S. epidermidis = assay: as above; assay type: cell-based, Staphylococcus epidermidis; parameters: key: A: Peptide aggregates; B: Less hyphal formation; Clumps; Diffuse clumps and small polyps; F: Diffuse growth; H: Thin; I: Growth inhibition; Microcolony formation; Rippled; Small polyps; Thick; W: Halo formation on top, microlonies on bottom
E. faecalis = assay: as above; assay type: cell-based, Enterococcus faecalis; parameters: key: A: Peptide aggregates; B: Less hyphal formation; Clumps; Diffuse clumps and small polyps; F: Diffuse growth; H: Thin; I: Growth inhibition; Microcolony formation; Rippled; Small polyps; Thick; W: Halo formation on top, microlonies on bottom; also: test concentration or dose not given here
B. subtilis = assay: as above; assay type: cell-based, Bacillus subtilis; parameters: key: A: Peptide aggregates; B: Less hyphal formation; Clumps; Diffuse clumps and small polyps; F: Diffuse growth; H: Thin; I: Growth inhibition; Microcolony formation; Rippled; Small polyps; Thick; W: Halo formation on top, microlonies on bottom; also: test concentration or dose not given here
S. mutans = assay: as above; assay type: cell-based, Streptococcus mutans; parameters: key: A: Peptide aggregates; B: Less hyphal formation; Clumps; Diffuse clumps and small polyps; F: Diffuse growth; H: Thin; I: Growth inhibition; Microcolony formation; Rippled; Small polyps; Thick; W: Halo formation on top, microlonies on bottom; also: test concentration or dose not given here
M. luteus = assay: as above; assay type: cell-based, Micrococcus luteus; parameters: key: A: Peptide aggregates; B: Less hyphal formation; Clumps; Diffuse clumps and small polyps; F: Diffuse growth; H: Thin; I: Growth inhibition; Microcolony formation; Rippled; Small polyps; Thick; W: Halo formation on top, microlonies on bottom; also: test concentration or dose not given here
C. jejuni = assay: as above; assay type: cell-based, Campylobacter jejuni; parameters: key: A: Peptide aggregates; B: Less hyphal formation; Clumps; Diffuse clumps and small polyps; F: Diffuse growth; H: Thin; I: Growth inhibition; Microcolony formation; Rippled; Small polyps; Thick; W: Halo formation on top, microlonies on bottom; also: test concentration or dose not given here
C. jeikeium = assay: as above; assay type: cell-based, Corynebacterium jeikeium; parameters: key: A: Peptide aggregates; B: Less hyphal formation; Clumps; Diffuse clumps and small polyps; F: Diffuse growth; H: Thin; I: Growth inhibition; Microcolony formation; Rippled; Small polyps; Thick; W: Halo formation on top, microlonies on bottom; also: test concentration or dose not given here
E. coli = assay: as above; assay type: cell-based, Escherichia coli; parameters: key: A: Peptide aggregates; B: Less hyphal formation; Clumps; Diffuse clumps and small polyps; F: Diffuse growth; H: Thin; I: Growth inhibition; Microcolony formation; Rippled; Small polyps; Thick; W: Halo formation on top, microlonies on bottom; also: test concentration or dose not given here
For Organism, effect (morphology, biofilm and growth disruption) in this document: test concentration or dose not given here.
For Organism, effect in this document: test concentration or dose not given here.

| Substance | Target(s) (microorganisms bound by the targeting peptide) [1] | Activities (microorganisms) | Organism, effect (C. albicans) | Organism, effect (C. jejuni) | Organism, effect (S. pneumoniae) | Organism, effect (B. subtilis) | Organism, effect (MRSA) | Organism, effect (S. epidermidis) | Organism, effect (E. faecalis) | other results |
| --- | --- | --- | --- | --- | --- | --- | --- | --- | --- | --- |
| PF-686: peptide having multiple activities (chain 1 LAVLMGYIGYRGWSGKRHINRQ; chain 2 LAVLMGYIGYRGWSGKRHINRQ; Peptide with targeting and/or antimicrobial activity) | M. smegmatis | G B | – | – | – | – | – | – | – | Organism, effect (morphology, biofilm and growth disruption) (MRSA): MRSA (M); Organism, effect (morphology, biofilm and growth disruption) (C. albicans): C. albicans (B); Organism, effect (morphology, biofilm and growth disruption) (S. pneumoniae): S. pneumoniae (A); Organism, effect (morphology, biofilm and growth disruption) (S. epidermidis): S. epidermidis (H); Organism, effect (morphology, biofilm and growth disruption) (E. faecalis): E. faecalis (R); Organism, effect (morphology, biofilm and growth disruption) (B. subtilis): B. subtilis (I) |
| PF-C057: peptide having multiple activities (YFWWYWVQDCIPYKNNEVWLELSNNMK; Peptide with targeting and/or antimicrobial activity) | A. naeslundii; also recorded: F. nucleatum; also recorded: P. gingivalis; also recorded: S. mutans | G B | – | – | – | – | – | – | – | Organism, effect (morphology, biofilm and growth disruption) (S. mutans): S. mutans (I) |
| PF-175: peptide having multiple activities (RRRPAGQRPEKASQAMIAA; Peptide with targeting and/or antimicrobial activity) | – | G B | C. albicans (B) | C. jejuni (M) | S. pneumoniae (A) | B. subtilis (D) | – | – | – | Target(s) ([1]; microorganism(s) the targeting peptide binds, binding in aqueous buffers depending on peptide solubility): S. epidermidis; also recorded: E. faecalis; Organism, effect (M. luteus): M. luteus (S) |
| PF-668 (chain 1 TNAESMALAFRGRVHMSVNIAGLT; chain 2 TNAESMALAFRGRVHMSVNIAGLT; Peptide with targeting and/or antimicrobial activity) | Mycobacteria spp | – | – | – | – | – | – | – | – | Organism, effect (morphology, biofilm and growth disruption) (MRSA): MRSA (R); Organism, effect (morphology, biofilm and growth disruption) (C. jeikeium): C. jeikeium (D); Organism, effect (morphology, biofilm and growth disruption) (C. albicans): C. albicans (A); Organism, effect (morphology, biofilm and growth disruption) (S. pneumoniae): S. pneumoniae (M); Organism, effect (morphology, biofilm and growth disruption) (S. epidermidis): S. epidermidis (M); Organism, effect (morphology, biofilm and growth disruption) (E. faecalis): E. faecalis (D); Organism, effect (morphology, biofilm and growth disruption) (B. subtilis): B. subtilis (A) |
| PF-C142: peptide having multiple activities (DFPPLSFFRRRFHAYTAPIDNFFGANPF; Peptide with targeting and/or antimicrobial activity) | A. naeslundii; also recorded: F. nucleatum; also recorded: P. gingivalis; also recorded: S. mutans; also recorded: T. denticola | G B | – | – | – | – | – | – | – | Organism, effect (morphology, biofilm and growth disruption) (S. mutans): S. mutans (I) |
| PF-C281: peptide having multiple activities (KKEKLLTAIRLQHRAEIRGYFTIFFLFFRI; Peptide with targeting and/or antimicrobial activity) | A. naeslundii; also recorded: F. nucleatum; also recorded: P. gingivalis; also recorded: S. mutans; also recorded: T. denticola | G B | – | – | – | – | – | – | – | Organism, effect (morphology, biofilm and growth disruption) (S. mutans): S. mutans (F) |
| HCVIGNVVDIANLLKRRAVYRDIADVIKMR [PF-071] | – | G B | C. albicans (B) | C. jejuni (A) | S. pneumoniae (A) | B. subtilis (D) | MRSA (C) | S. epidermidis (R) | – | Target(s) ([1]; microorganism the targeting peptide binds, binding in aqueous buffers varied by peptide solubility): S. epidermidis and E. coli and P. aeruginosa and C. albicans and MRSA and S. pneumoniae and E. faecalis; Organism, effect (M. luteus): M. luteus (R) |
| PF-057: peptide having multiple activities (chain 1 TMIVISIPRFEEYMKARHKKWM; chain 2 TMIVISIPRFEEYMKARHKKWM; Peptide with targeting and/or antimicrobial activity) | – | G B | C. albicans (A) | C. jejuni (D) | S. pneumoniae (R) | – | MRSA (M) | S. epidermidis (D) | E. faecalis (A) | Organism, effect (C. jeikeium): C. jeikeium (A); Organism, effect (E. coli): E. coli (M); Organism, effect (M. luteus): M. luteus (C) |
| PF-426: peptide having multiple activities (MLQKYTQMISVTKCIITKNKKTQENVDAYN; Peptide with targeting and/or antimicrobial activity) | – | G B | C. albicans (A) | C. jejuni (D) | S. pneumoniae (D) | – | MRSA (D) | S. epidermidis (D) | E. faecalis (D) | Target(s) ([1]; microorganism(s) the targeting peptide binds, peptide binding conducted in aqueous buffers varied by peptide solubility): S. epidermidis and E. coli and P. aeruginosa and C. albicans and MRSA and S. pneumoniae and E. faecalis and C. jeikeium; Organism, effect (E. coli): E. coli (C) |
| PF-636: peptide having multiple activities (chain 1 LVRLA; chain 2 LVRLA; Peptide with targeting and/or antimicrobial activity) | S. epidermidis and C. albicans and MRSA and S. pneumoniae and E. faecalis | G B | C. albicans (B) | – | S. pneumoniae (H) | B. subtilis (H) | – | – | E. faecalis (H) | – |
| PF-632: peptide having multiple activities (chain 1 TTIQGVASLEKHGFRYTIIYPTRI; chain 2 TTIQGVASLEKHGFRYTIIYPTRI; Peptide with targeting and/or antimicrobial activity) | S. epidermidis and P. aeruginosa and C. albicans and MRSA and S. pneumoniae and E. faecalis and C. jeikeium | G B | C. albicans (B) | – | S. pneumoniae (M) | B. subtilis (H) | MRSA (D) | S. epidermidis (D) | E. faecalis (D) | Organism, effect (C. jeikeium): C. jeikeium (D) |
